Reference: US10172362B2, “Biofilms, components and methods of use to reduce biofouling and contamination” (THE PENN STATE RESEARCH FOUNDATION, priority 2015, dated 2019)

What was measured:
[1] = Rejection experiments with NF90 membranes (no biofilm); type: physicochemical; details: 1 mM and 10 mM feed in 5 mM NaCl (pH 9.0), 30 min
Description: Beneficial Biofilm Degrades Epichlorohydrin. Epichlorohydrin is an emerging water contaminant for which treatment techniques are not well studied. […] Measurements were taken 30 min after permeation began. Feed was in 5 mM NaCl (pH 9.0). Furthermore, when grown on the NF90 membrane, the beneficial biofilm that produces EH degraded epichlorohydrin by more than 39±4% in single pass batch filtration (See FIGS. 29 and 30). […] Biofilms grown for 24 h on NF90 membranes were challenged with 10 mM epichlorohydrin in 5 mM NaCl feed solution (pH 9). The left and adjacent right bars indicate the molar removal of epichlorohydrin (%) at 20 min and 30 min respectively, after starting filtration. The removal of epichlorohydrin by adsorption to cellular biomass was estimated using a dead cell control experiment. EH− is E. coli TG1/pBdcAE50Q-lasI-lasR/pBNos and EH+ is E. coli TG1/pBdcAE50Q-lasI-lasR/pBNos-echA. Dead cells were obtained by autoclaving overnight cultures of the EH+ strain. The error bars are standard deviation for three independent colonies.

biofilm dispersal = details: cited from earlier work

Row | Molecule | passage through NF90 membrane [1] | higher levels of biofilm dispersal (biofilm dispersal)
1 | ClCC1CO1 (centres unmarked) [Epichlorohydrin] | passes through the membrane used | 
2 | BdcA E50Q variant (protein, UniProt P39333 1-237, looked up, variant E50Q) Cyclic-di-GMP-binding biofilm …: MGAFTGKTVLILGGSRGIGAAIVRRFVTDGANVRFTYAGSKDAAKRLAQQTGATAVFTDSADRDAVIDVVRKSGALDILVVNAGIGVFGEALELNADDIDRLFKINIHAPYHASVEAARQMPEGGRILIIGSVNGDRMPVAGMAAYAASKSALQGMARGLARDFGPRGITINVVQPGPIDTDANPANGPMRDMLHSLMAIKRHGQPEEVAGMVAWLAGPEASFVTGAMHTIDGAFGA |  | six-fold higher
